Results reported in paper PMC7180948, “New Insights into 4-Anilinoquinazolines as Inhibitors of Cardiac Troponin I–Interacting Kinase (TNNi3K)” (Molecules, 2020).

Experiments:
ZAK = target: T1, ZAK (Homo sapiens, UniProt Q9NYL2); test: KINOMEscan at […], single concentration; format: binding
T1 construct: gene MAP3K20

BIKE = target: T2, BIKE (Homo sapiens, UniProt Q9NSY1); test: biochemical; design: KINOMEscan competition binding panel (Eurofins DiscoverX), single concentration, percent inhibition; conditions: read-out: 15 at 1 µM % inhibition
T2 construct: gene BMP2K
Procedure, shortened: (§1)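 Selectivity profile from a KINOMEscan run against >400 human kinases; test concentration 1 µM.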

[1] = target: EGFR(L747-S752del, P753S) (Homo sapiens, UniProt P00533, DEL747-752/P753S); test: biochemical; design: KINOMEscan competition binding panel (Eurofins DiscoverX), single concentration, percent inhibition; conditions: read-out: 15 at 1 µM % inhibition
Procedure, shortened: as §1

IGF1R = IGF1R (Homo sapiens, UniProt P08069); test: biochemical; design: KINOMEscan competition binding panel (Eurofins DiscoverX), single concentration, percent inhibition; conditions: read-out: 15 at 1 µM % inhibition
Procedure, shortened: as §1

MST2 = target: T3, MST2 (Homo sapiens, UniProt Q13188); test: biochemical; design: KINOMEscan competition binding panel (Eurofins DiscoverX), single concentration, percent inhibition; conditions: read-out: 15 at 1 µM % inhibition
T3 construct: gene STK3
Procedure, shortened: as §1

EPHA8 = EPHA8 (Homo sapiens, UniProt P29322); test: biochemical; design: KINOMEscan competition binding panel (Eurofins DiscoverX), single concentration, percent inhibition; conditions: read-out: 15 at 1 µM % inhibition
Procedure, shortened: as §1

KIT(V559D,V654A) = KIT(V559D,V654A) (Homo sapiens, UniProt P10721, V559D/V654A); test: biochemical; design: KINOMEscan competition binding panel (Eurofins DiscoverX), single concentration, percent inhibition; conditions: read-out: 15 at 1 µM % inhibition
Procedure, shortened: as §1

GRK7 = GRK7 (Homo sapiens, UniProt Q8WTQ7); test: biochemical; design: KINOMEscan competition binding panel (Eurofins DiscoverX), single concentration, percent inhibition; conditions: read-out: 15 at 1 µM % inhibition
Procedure, shortened: as §1

ABL1-nonphosphorylated = target: T4, ABL1-nonphosphorylated (Homo sapiens, UniProt P00519); test: biochemical; design: KINOMEscan competition binding panel (Eurofins DiscoverX), single concentration, percent inhibition; conditions: read-out: 15 at 1 µM % inhibition
T4 construct: nonphosphorylated
Procedure, shortened: as §1

SRPK2 = SRPK2 (Homo sapiens, UniProt P78362); test: biochemical; design: KINOMEscan competition binding panel (Eurofins DiscoverX), single concentration, percent inhibition; conditions: read-out: 15 at 1 µM % inhibition
Procedure, shortened: as §1

TNIK = TNIK (Homo sapiens, UniProt Q9UKE5); test: biochemical; design: KINOMEscan competition binding panel (Eurofins DiscoverX), single concentration, percent inhibition; conditions: read-out: 15 at 1 µM % inhibition
Procedure, shortened: as §1

MYO3B = MYO3B (Homo sapiens, UniProt Q8WXR4); test: biochemical; design: KINOMEscan competition binding panel (Eurofins DiscoverX), single concentration, percent inhibition; conditions: read-out: 15 at 1 µM % inhibition
Procedure, shortened: as §1

PIP5K2B = target: T5, PIP5K2B (Homo sapiens, UniProt P78356); test: biochemical; design: KINOMEscan competition binding panel (Eurofins DiscoverX), single concentration, percent inhibition; conditions: read-out: 15 at 1 µM % inhibition
T5 construct: gene PIP4K2B
Procedure, shortened: as §1

PAK3 = PAK3 (Homo sapiens, UniProt O75914); test: biochemical; design: KINOMEscan competition binding panel (Eurofins DiscoverX), single concentration, percent inhibition; conditions: read-out: 15 at 1 µM % inhibition
Procedure, shortened: as §1

ERK3 = target: T6, ERK3 (Homo sapiens, UniProt Q16659); test: biochemical; design: KINOMEscan competition binding panel (Eurofins DiscoverX), single concentration, percent inhibition; conditions: read-out: 15 at 1 µM % inhibition
T6 construct: gene MAPK6
Procedure, shortened: as §1

[2] = target: T7, JAK3(JH1domain-catalytic) (Homo sapiens, UniProt P52333); test: biochemical; design: KINOMEscan competition binding panel (Eurofins DiscoverX), single concentration, percent inhibition; conditions: read-out: 15 at 1 µM % inhibition
T7 construct: JH1domain-catalytic
Procedure, shortened: as §1

ULK3 = ULK3 (Homo sapiens, UniProt Q6PHR2); test: biochemical; design: KINOMEscan competition binding panel (Eurofins DiscoverX), single concentration, percent inhibition; conditions: read-out: 15 at 1 µM % inhibition
Procedure, shortened: as §1

LOK = target: T8, LOK (Homo sapiens, UniProt O94804); test: biochemical; design: KINOMEscan competition binding panel (Eurofins DiscoverX), single concentration, percent inhibition; conditions: read-out: 15 at 1 µM % inhibition
T8 construct: gene STK10
Procedure, shortened: as §1

T1 sequence (Q9NYL2 2-800): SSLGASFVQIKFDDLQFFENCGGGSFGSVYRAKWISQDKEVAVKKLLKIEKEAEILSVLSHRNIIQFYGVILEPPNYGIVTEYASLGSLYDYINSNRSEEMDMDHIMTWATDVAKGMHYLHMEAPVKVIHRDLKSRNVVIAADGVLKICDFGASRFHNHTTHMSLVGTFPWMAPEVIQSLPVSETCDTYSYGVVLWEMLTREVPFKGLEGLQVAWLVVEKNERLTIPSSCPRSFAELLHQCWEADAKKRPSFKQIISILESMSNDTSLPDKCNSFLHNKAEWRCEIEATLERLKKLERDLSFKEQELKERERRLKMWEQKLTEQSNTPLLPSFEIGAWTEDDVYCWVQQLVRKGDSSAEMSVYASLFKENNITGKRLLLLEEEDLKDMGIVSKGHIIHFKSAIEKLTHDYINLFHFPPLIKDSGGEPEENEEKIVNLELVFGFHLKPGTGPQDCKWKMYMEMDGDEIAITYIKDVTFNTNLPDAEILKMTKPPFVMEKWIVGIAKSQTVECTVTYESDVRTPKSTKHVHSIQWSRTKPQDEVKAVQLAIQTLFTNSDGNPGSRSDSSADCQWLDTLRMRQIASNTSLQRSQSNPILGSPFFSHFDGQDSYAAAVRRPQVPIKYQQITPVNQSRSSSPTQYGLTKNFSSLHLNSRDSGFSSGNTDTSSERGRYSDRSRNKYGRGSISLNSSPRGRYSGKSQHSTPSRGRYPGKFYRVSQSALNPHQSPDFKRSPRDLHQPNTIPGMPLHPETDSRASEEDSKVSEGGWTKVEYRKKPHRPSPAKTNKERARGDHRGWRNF
Chain of SRPK2 (P78362 whole entry): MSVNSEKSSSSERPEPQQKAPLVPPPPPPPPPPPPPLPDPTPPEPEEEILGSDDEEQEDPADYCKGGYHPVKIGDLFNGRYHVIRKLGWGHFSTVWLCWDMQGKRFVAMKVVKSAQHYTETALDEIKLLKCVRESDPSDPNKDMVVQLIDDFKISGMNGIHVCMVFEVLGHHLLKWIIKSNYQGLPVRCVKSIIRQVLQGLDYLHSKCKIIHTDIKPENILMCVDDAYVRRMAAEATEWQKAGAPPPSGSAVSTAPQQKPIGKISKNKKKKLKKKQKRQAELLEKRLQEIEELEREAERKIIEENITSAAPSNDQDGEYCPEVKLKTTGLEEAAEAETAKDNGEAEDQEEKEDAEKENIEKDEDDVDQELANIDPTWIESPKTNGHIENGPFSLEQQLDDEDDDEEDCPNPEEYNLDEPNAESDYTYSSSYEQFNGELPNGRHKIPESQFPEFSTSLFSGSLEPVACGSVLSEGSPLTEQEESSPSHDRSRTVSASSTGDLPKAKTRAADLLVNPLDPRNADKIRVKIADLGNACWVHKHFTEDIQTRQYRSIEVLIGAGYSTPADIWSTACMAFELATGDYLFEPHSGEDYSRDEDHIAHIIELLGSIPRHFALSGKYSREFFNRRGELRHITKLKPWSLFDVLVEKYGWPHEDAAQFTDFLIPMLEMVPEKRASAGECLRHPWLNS
Chain of EPHA8 (P29322 whole entry): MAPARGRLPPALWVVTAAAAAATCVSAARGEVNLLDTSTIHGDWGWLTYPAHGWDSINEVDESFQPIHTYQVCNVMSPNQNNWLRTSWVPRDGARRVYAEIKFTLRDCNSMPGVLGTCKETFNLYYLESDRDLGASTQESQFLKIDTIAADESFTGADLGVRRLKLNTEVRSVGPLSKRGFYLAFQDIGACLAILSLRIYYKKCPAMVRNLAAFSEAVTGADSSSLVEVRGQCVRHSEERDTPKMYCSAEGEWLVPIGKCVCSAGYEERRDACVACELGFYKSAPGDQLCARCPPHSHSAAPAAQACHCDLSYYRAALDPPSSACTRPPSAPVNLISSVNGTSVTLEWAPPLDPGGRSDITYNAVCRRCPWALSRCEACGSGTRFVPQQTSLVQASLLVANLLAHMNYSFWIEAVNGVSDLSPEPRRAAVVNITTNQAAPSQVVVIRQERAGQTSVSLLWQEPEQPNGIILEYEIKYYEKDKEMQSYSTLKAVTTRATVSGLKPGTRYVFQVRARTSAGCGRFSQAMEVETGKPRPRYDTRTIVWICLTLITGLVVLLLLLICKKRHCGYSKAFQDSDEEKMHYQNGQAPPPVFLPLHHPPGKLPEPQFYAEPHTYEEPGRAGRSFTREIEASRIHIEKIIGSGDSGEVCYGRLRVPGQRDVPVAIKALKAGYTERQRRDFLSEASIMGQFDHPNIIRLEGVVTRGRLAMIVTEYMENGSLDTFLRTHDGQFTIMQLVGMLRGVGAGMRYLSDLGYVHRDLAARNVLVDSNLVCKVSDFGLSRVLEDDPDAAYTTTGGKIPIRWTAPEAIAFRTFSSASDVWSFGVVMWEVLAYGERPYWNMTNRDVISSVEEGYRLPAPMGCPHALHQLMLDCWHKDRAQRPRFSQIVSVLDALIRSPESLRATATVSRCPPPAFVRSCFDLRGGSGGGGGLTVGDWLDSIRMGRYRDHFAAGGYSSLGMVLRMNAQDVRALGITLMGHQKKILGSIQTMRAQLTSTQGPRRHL
T2 sequence (Q9NSY1 whole entry): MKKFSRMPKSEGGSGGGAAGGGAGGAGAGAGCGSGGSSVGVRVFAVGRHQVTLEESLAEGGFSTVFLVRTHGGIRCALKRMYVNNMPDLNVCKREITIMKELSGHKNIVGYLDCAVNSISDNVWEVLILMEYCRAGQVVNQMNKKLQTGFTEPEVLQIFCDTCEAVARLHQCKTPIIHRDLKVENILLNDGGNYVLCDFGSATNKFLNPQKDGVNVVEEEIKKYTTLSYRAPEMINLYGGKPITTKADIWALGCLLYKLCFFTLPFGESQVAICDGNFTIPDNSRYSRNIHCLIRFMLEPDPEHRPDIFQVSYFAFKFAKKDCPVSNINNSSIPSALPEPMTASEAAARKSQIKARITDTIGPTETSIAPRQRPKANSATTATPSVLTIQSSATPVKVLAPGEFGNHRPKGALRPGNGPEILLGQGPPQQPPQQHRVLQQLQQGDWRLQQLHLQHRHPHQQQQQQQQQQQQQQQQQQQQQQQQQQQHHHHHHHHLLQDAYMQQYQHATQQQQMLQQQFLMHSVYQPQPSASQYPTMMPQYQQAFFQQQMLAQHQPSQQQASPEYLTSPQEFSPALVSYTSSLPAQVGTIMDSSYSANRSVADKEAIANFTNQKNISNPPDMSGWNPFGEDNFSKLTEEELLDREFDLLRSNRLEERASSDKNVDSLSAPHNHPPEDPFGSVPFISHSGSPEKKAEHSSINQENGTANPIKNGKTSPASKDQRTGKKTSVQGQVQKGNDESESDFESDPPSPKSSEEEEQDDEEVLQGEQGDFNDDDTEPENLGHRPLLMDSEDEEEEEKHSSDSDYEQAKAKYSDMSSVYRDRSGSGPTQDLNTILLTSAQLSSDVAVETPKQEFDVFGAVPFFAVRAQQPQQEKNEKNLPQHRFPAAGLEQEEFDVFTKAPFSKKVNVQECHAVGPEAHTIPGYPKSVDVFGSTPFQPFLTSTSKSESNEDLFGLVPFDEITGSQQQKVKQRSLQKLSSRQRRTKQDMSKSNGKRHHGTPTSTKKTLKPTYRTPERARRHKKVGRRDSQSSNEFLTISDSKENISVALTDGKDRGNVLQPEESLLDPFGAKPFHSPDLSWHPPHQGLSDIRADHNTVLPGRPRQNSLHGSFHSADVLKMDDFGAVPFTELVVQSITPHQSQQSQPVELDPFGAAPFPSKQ
Chain of MYO3B (Q8WXR4 whole entry): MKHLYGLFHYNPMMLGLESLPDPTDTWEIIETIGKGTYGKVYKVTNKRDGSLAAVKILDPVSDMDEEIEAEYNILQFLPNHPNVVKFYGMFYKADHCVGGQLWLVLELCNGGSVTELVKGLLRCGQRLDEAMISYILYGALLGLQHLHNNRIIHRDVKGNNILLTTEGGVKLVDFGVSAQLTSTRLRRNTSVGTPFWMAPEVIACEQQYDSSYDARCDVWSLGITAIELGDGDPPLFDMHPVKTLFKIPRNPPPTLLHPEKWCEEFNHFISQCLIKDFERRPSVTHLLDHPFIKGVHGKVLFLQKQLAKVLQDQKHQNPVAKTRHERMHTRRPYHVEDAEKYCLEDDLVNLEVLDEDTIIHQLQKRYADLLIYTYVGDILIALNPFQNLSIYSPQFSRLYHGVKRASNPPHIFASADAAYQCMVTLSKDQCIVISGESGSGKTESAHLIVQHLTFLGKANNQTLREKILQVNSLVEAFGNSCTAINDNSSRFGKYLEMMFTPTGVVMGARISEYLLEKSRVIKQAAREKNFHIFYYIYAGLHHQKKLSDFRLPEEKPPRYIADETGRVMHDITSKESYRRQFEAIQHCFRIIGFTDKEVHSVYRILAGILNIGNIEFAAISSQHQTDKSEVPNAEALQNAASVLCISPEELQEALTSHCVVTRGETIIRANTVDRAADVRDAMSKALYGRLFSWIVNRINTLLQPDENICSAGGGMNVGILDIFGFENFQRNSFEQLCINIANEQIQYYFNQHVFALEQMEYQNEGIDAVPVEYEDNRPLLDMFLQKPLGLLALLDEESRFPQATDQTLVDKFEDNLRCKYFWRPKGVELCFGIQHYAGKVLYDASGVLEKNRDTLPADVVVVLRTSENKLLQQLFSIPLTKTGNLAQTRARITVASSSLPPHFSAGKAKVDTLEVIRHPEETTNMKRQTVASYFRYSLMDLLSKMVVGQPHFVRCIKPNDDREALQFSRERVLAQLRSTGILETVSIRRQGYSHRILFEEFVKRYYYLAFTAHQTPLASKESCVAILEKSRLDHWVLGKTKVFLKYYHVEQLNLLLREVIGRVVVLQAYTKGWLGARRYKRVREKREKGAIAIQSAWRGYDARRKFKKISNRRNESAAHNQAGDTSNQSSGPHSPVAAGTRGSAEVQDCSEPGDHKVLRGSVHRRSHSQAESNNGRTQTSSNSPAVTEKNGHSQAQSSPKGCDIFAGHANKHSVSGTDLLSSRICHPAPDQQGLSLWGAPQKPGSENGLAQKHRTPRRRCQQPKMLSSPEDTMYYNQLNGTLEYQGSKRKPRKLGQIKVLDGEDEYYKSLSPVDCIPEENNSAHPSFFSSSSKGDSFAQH

Row | SMILES | inhibition at 1 µM (ZAK) [%] | inhibition at 1 µM (BIKE) [%] | inhibition at 1 µM [1] [%] | inhibition at 1 µM (IGF1R) [%] | inhibition at 1 µM (MST2) [%] | inhibition at 1 µM (EPHA8) [%] | inhibition at 1 µM (KIT(V559D,V654A)) [%] | inhibition at 1 µM (GRK7) [%] | inhibition at 1 µM (ABL1-nonphosphorylated) [%] | inhibition at 1 µM (SRPK2) [%] | inhibition at 1 µM (TNIK) [%] | inhibition at 1 µM (MYO3B) [%] | inhibition at 1 µM (PIP5K2B) [%] | inhibition at 1 µM (PAK3) [%] | inhibition at 1 µM (ERK3) [%] | inhibition at 1 µM [2] [%] | inhibition at 1 µM (ULK3) [%] | inhibition at 1 µM (LOK) [%]
1 | CNS(=O)(=O)c1ccc(N(C)C)c(Nc2ncnc3cc(OC)c(OC)cc23)c1 [compound 7, 3-((6,7-dimethoxyquinazolin-4-yl)amino)-4-(dimethylamino)-N-methylbenzenesulfonamide] | 93 | – | – | – | – | – | – | – | – | – | – | – | – | – | – | – | – | –
2 | CNS(=O)(=O)c1ccc(N(C)C)c(Nc2nc(C)nc3cc(OC)c(OC)cc23)c1 [compound 15, 3-((6,7-dimethoxy-2-methylquinazolin-4-yl)amino)-4-(dimethylamino)-N-methylbenzenesulfonamide] | – | 0 | 11 | 0 | 4 | 3 | 0 | 13 | 13 | 16 | 1 | 15 | 0 | 4 | 18 | 10 | 23 | 7
